From US12371464B2, “Polypeptides and uses thereof” (MEDIMMUNE LIMITED, priority 2020, dated 2025)
Numbered stars: 1 amine (or outer) side, 2 acyl side, 3 side chain; on linkers, the order of the positions; unused ones are H or OH. Bridge positions count the residues as written; N and C are the ends. Square brackets hold non-standard residues; d marks the D form. Side chains are listed from the residue outwards. Peptide text beside a SMILES is read from it. * marks the point of attachment. C18 diacid = O=C(O)CCCCCCCCCCCCCCCCC(=O)*; γGlu = O=C(O)[C@H](CCC(=O)[*:2])N[*:1]; αMeF = C[C@](N)(Cc1ccccc1)C(=O)O; AEEA = NCCOCCOCC(=O)O; Aib = CC(C)(N)C(=O)O

Test: Thioflavin T fibrillation assay
Assay type: physicochemical
Settings: for Time taken to detect increase in fluorescence intensity: 1 mg/mL in 25 mM sodium acetate buffer pH 4.0, 37° C., 6 days, orbital shaking, >144 h = no increase; for fibril-forming tendency on conjugating pramlintide to a lipid: as seen in Table 7
Excerpt: Peptide aggregation that form fibrils is an indication of physical instability. Fibril formation in solution poses a significant risk for the stability of injectable peptide drug products. Thioflavin T (ThT) fibrillation assay is a useful tool to assess the aggregation kinetics of a peptide or protein under accelerated and stressed conditions that can be used to forecast the long-term viability of a compound in solution. ThT can selectively bind amyloid fibrils and the resultant complex emits strong fluorescence signal at 482 nm when excited at 450 nm (Anal Biochem. 1989 March; 177 (2): 244-9). Monitoring of the change in fluorescence signal is an established method to study the fibril forming potential of peptides and proteins. ThT (purchased from Sigma Aldrich) stock solution is prepared by dissolving the ThT powder in Milli-Q water and filtered to obtain a 0.25 mM solution. The concentration of the solution is measured at 412 nm using an extinction coefficient of 36 mM-1 cm-1. Test peptides were dissolved at 1 mg/mL in 25 mM sodium acetate buffer pH 4.0. 100 μL aliquot of peptide solution and 5 μL aliquot of ThT solution were placed in a clear bottom black fluorescence 96-well plate. 5 replicates of each test samples were placed in the same row of the plate. Buffer was placed in control wells for baseline correction. All empty wells were filled with water to prevent evaporation. The plate was sealed with aluminium seal and placed in fluorescence plate reader and incubated for 6 days at 37° C. with intermittent orbital shaking at 500 to 750 rpm. The fluorescence intensity was measured every 30 min using excitation at 444 nm and emission at 480 nm. The fibril forming potential of the test peptides was determined by measuring the average time taken to detect an increase in baseline corrected fluorescence intensity.

| Time taken to detect increase in fluorescence intensity [h] | fibril-forming tendency on conjugating pramlintide to a lipid | Compound |
| --- | --- | --- |
| 25 | – | CC[C@H](C)[C@H](NC(=O)[C@@H]1CCCN1C(=O)CNC(=O)[C@](C)(Cc1ccccc1)NC(=O)[C@H](CC(N)=O)NC(=O)[C@H](CC(N)=O)NC(=O)[C@H](CO)NC(=O)[C@H](CO)NC(=O)[C@H](Cc1c[nH]cn1)NC(=O)[C@@H](NC(=O)[C@H](CC(C)C)NC(=O)[C@H](Cc1ccccc1)NC(=O)[C@H](CC(N)=O)NC(=O)[C@H](C)NC(=O)[C@H](CC(C)C)NC(=O)[C@H](CCCNC(=N)N)NC(=O)[C@H](CCC(N)=O)NC(=O)[C@@H](NC(=O)[C@H](C)NC(=O)[C@@H]1CSSC[C@H](NC(=O)[C@@H](N)CCCCNC(=O)CC[C@H](NC(=O)CC[C@H](NC(=O)CCCCCCCCCCCCCCCCC(=O)O)C(=O)O)C(=O)O)C(=O)N[C@@H](CC(N)=O)C(=O)N[C@@H]([C@@H](C)O)C(=O)N[C@@H](C)C(=O)N[C@@H]([C@@H](C)O)C(=O)N1)[C@@H](C)O)C(C)C)C(=O)N[C@@H](CC(C)C)C(=O)N1CCC[C@H]1C(=O)N1CCC[C@H]1C(=O)N[C@H](C(=O)N[C@@H](CC(N)=O)C(=O)N[C@H](C(=O)NCC(=O)N[C@@H](CO)C(=O)N[C@@H](CC(N)=O)C(=O)N[C@H](C(=O)N[C@@H](Cc1ccc(O)cc1)C(N)=O)[C@@H](C)O)C(C)C)[C@@H](C)O [Peptide 13, K(γE-γE-C18diacid)[CNTATC]ATQRLANFLVHSSNN(αMePhe)GPILPPTNVGSNTY-amide] (H-K([γGlu-γGlu-C18 diacid])CNTATCATQRLANFLVHSSNN[αMeF]GPILPPTNVGSNTY-NH2; disulfide 2-7; N-terminus assumed) |
| >144 | – | CC[C@H](C)[C@H](NC(=O)[C@@H]1CCCN1C(=O)CNC(=O)[C@](C)(Cc1ccccc1)NC(=O)[C@H](CC(N)=O)NC(=O)[C@H](CC(N)=O)NC(=O)[C@H](CO)NC(=O)[C@H](CO)NC(=O)[C@H](Cc1c[nH]cn1)NC(=O)[C@@H](NC(=O)[C@H](CC(C)C)NC(=O)[C@H](Cc1ccccc1)NC(=O)[C@H](CC(N)=O)NC(=O)[C@H](C)NC(=O)[C@H](CC(C)C)NC(=O)[C@H](CCCNC(=N)N)NC(=O)[C@H](CCC(N)=O)NC(=O)[C@@H](NC(=O)[C@H](C)NC(=O)[C@@H]1CSSC[C@H](NC(=O)[C@@H](N)CCCCNC(=O)CC[C@H](NC(=O)CC[C@H](NC(=O)CCCCCCCCCCCCCCCCC(=O)O)C(=O)O)C(=O)O)C(=O)N[C@@H](CC(N)=O)C(=O)N[C@@H]([C@@H](C)O)C(=O)N[C@@H](C)C(=O)N[C@@H]([C@@H](C)O)C(=O)N1)[C@@H](C)O)C(C)C)C(=O)N[C@@H](CC(C)C)C(=O)N1CCC[C@H]1C(=O)N1CCC[C@H]1C(=O)N[C@H](C(=O)N[C@@H](CC(N)=O)C(=O)N[C@H](C(=O)NCC(=O)N[C@@H](CO)C(=O)N[C@@H](CCCNC(=N)N)C(=O)N[C@H](C(=O)N[C@@H](Cc1ccc(O)cc1)C(N)=O)[C@@H](C)O)C(C)C)[C@@H](C)O [Peptide 21, K(γE-γE-C18diacid)[CNTATC]ATQRLANFLVHSSNN(αMePhe)GPILPPTNVGSRTY-amide] (H-K([γGlu-γGlu-C18 diacid])CNTATCATQRLANFLVHSSNN[αMeF]GPILPPTNVGSRTY-NH2; disulfide 2-7; N-terminus assumed) |
| 15 | increases the fibril-forming tendency | CC[C@H](C)[C@H](NC(=O)[C@@H]1CCCN1C(=O)CNC(=O)[C@H](Cc1ccccc1)NC(=O)[C@H](CC(N)=O)NC(=O)[C@H](CC(N)=O)NC(=O)[C@H](CO)NC(=O)[C@H](CO)NC(=O)[C@H](Cc1c[nH]cn1)NC(=O)[C@@H](NC(=O)[C@H](CC(C)C)NC(=O)[C@H](Cc1ccccc1)NC(=O)[C@H](CC(N)=O)NC(=O)[C@H](C)NC(=O)[C@H](CC(C)C)NC(=O)[C@H](CCCNC(=N)N)NC(=O)[C@H](CCC(N)=O)NC(=O)[C@@H](NC(=O)[C@H](C)NC(=O)[C@@H]1CSSC[C@H](NC(=O)[C@@H](N)CCCCNC(=O)COCCOCCNC(=O)COCCOCCNC(=O)CC[C@H](NC(=O)CCCCCCCCCCCCCCCCC(=O)O)C(=O)O)C(=O)N[C@@H](CC(N)=O)C(=O)N[C@@H]([C@@H](C)O)C(=O)N[C@@H](C)C(=O)N[C@@H]([C@@H](C)O)C(=O)N1)[C@@H](C)O)C(C)C)C(=O)N[C@@H](CC(C)C)C(=O)N1CCC[C@H]1C(=O)N1CCC[C@H]1C(=O)N[C@H](C(=O)N[C@@H](CC(N)=O)C(=O)N[C@H](C(=O)NCC(=O)N[C@@H](CO)C(=O)N[C@@H](CC(N)=O)C(=O)N[C@H](C(=O)N[C@@H](Cc1ccc(O)cc1)C(N)=O)[C@@H](C)O)C(C)C)[C@@H](C)O [Peptide 6] (H-K([AEEA-AEEA-γGlu-C18 diacid])CNTATCATQRLANFLVHSSNNFGPILPPTNVGSNTY-NH2; disulfide 2-7; N-terminus assumed) |
| <5 | increases the fibril-forming tendency | CC[C@H](C)[C@H](NC(=O)[C@@H]1CCCN1C(=O)CNC(=O)[C@H](Cc1ccccc1)NC(=O)[C@H](CC(N)=O)NC(=O)[C@H](CC(N)=O)NC(=O)[C@H](CO)NC(=O)[C@H](CO)NC(=O)[C@H](Cc1c[nH]cn1)NC(=O)[C@@H](NC(=O)[C@H](CC(C)C)NC(=O)[C@H](Cc1ccccc1)NC(=O)[C@H](CC(N)=O)NC(=O)[C@H](C)NC(=O)[C@H](CC(C)C)NC(=O)[C@H](CCCNC(=N)N)NC(=O)[C@H](CCC(N)=O)NC(=O)[C@@H](NC(=O)[C@H](C)NC(=O)[C@@H]1CSSC[C@H](NC(=O)[C@H](CCCCN)NC(=O)CNC(=O)CNC(=O)CNC(=O)CC[C@H](NC(=O)CC[C@H](NC(=O)CCCCCCCCCCCCCCCCC(=O)O)C(=O)O)C(=O)O)C(=O)N[C@@H](CC(N)=O)C(=O)N[C@@H]([C@@H](C)O)C(=O)N[C@@H](C)C(=O)N[C@@H]([C@@H](C)O)C(=O)N1)[C@@H](C)O)C(C)C)C(=O)N[C@@H](CC(C)C)C(=O)N1CCC[C@H]1C(=O)N1CCC[C@H]1C(=O)N[C@H](C(=O)N[C@@H](CC(N)=O)C(=O)N[C@H](C(=O)NCC(=O)N[C@@H](CO)C(=O)N[C@@H](CC(N)=O)C(=O)N[C@H](C(=O)N[C@@H](Cc1ccc(O)cc1)C(N)=O)[C@@H](C)O)C(C)C)[C@@H](C)O [Peptide 4] ({C18 diacid-γGlu-γGlu}-GGGKCNTATCATQRLANFLVHSSNNFGPILPPTNVGSNTY-NH2; disulfide 5-10) |
| >144 | – | CC[C@H](C)[C@H](NC(=O)[C@@H]1CCCN1C(=O)CNC(=O)[C@H](Cc1ccccc1)NC(=O)[C@H](CC(N)=O)NC(=O)C(C)(C)NC(=O)[C@H](CO)NC(=O)[C@H](CO)NC(=O)[C@H](Cc1c[nH]cn1)NC(=O)[C@H](CCCNC(=N)N)NC(=O)[C@H](CC(C)C)NC(=O)[C@H](Cc1ccccc1)NC(=O)[C@H](CC(N)=O)NC(=O)[C@H](C)NC(=O)[C@H](CC(C)C)NC(=O)[C@H](CCCNC(=N)N)NC(=O)[C@H](CCC(N)=O)NC(=O)[C@@H](NC(=O)[C@H](C)NC(=O)[C@@H]1CSSC[C@H](NC(=O)[C@H](CCCCN)NC(=O)[C@@H](N)CCCCNC(=O)CC[C@H](NC(=O)CC[C@H](NC(=O)CCCCCCCCCCCCCCCCC(=O)O)C(=O)O)C(=O)O)C(=O)N[C@@H](CC(N)=O)C(=O)N[C@@H]([C@@H](C)O)C(=O)N[C@@H](C)C(=O)N[C@@H]([C@@H](C)O)C(=O)N1)[C@@H](C)O)C(=O)N[C@@H](CC(C)C)C(=O)N1CCC[C@H]1C(=O)N1CCC[C@H]1C(=O)N[C@H](C(=O)N[C@@H](CC(N)=O)C(=O)N[C@H](C(=O)NCC(=O)N[C@@H](CO)C(=O)N[C@@H](CC(N)=O)C(=O)N[C@H](C(=O)N[C@@H](Cc1ccc(O)cc1)C(N)=O)[C@@H](C)O)C(C)C)[C@@H](C)O [Peptide 66, K(γE-γE-C18diacid)K[CNTATC]ATQRLANFLRHSS(Aib)NFGPILPPTNVGSNTY-amide] (H-K([γGlu-γGlu-C18 diacid])KCNTATCATQRLANFLRHSS[Aib]NFGPILPPTNVGSNTY-NH2; disulfide 3-8; N-terminus assumed) |
| >144 | – | CC[C@H](C)[C@H](NC(=O)[C@@H]1CCCN1C(=O)CNC(=O)[C@H](Cc1ccccc1)NC(=O)[C@H](CC(N)=O)NC(=O)C(C)(C)NC(=O)[C@H](CO)NC(=O)[C@H](CO)NC(=O)[C@H](Cc1c[nH]cn1)NC(=O)[C@@H](NC(=O)[C@H](CC(C)C)NC(=O)[C@H](Cc1ccccc1)NC(=O)[C@H](CC(N)=O)NC(=O)[C@H](C)NC(=O)[C@H](CC(C)C)NC(=O)[C@H](CCCNC(=N)N)NC(=O)[C@H](CCC(N)=O)NC(=O)[C@@H](NC(=O)[C@H](C)NC(=O)[C@@H]1CSSC[C@H](NC(=O)[C@H](CCCCN)NC(=O)[C@@H](N)CCCCNC(=O)CC[C@H](NC(=O)CCCCCCCCCCCCCCCCC(=O)O)C(=O)O)C(=O)N[C@@H](CC(N)=O)C(=O)N[C@@H]([C@@H](C)O)C(=O)N[C@@H](C)C(=O)N[C@@H]([C@@H](C)O)C(=O)N1)[C@@H](C)O)C(C)C)C(=O)N[C@@H](CC(C)C)C(=O)N1CCC[C@H]1C(=O)N1CCC[C@H]1C(=O)N[C@H](C(=O)N[C@@H](Cc1c[nH]cn1)C(=O)N[C@H](C(=O)NCC(=O)N[C@@H](CO)C(=O)N[C@@H](CC(N)=O)C(=O)N[C@H](C(=O)N[C@@H](Cc1ccc(O)cc1)C(N)=O)[C@@H](C)O)C(C)C)[C@@H](C)O [Peptide 40, K(γE-C18diacid)K[CNTATC]ATQRLANFLVHSS(Aib)NFGPILPPTHVGSNTY-amide] (H-K([γGlu-C18 diacid])KCNTATCATQRLANFLVHSS[Aib]NFGPILPPTHVGSNTY-NH2; disulfide 3-8; N-terminus assumed) |
